Source: patent US11618883B2, “Method for producing retinal pigment epithelial cells” (SUMITOMO PHARMA CO., LTD., priority 2017, dated 2023)

Experiments:
[1] = tested on: human iPS cells (201B7, 1231A3, Ff-I01, QHJI01 lines); assay: Production of RPE cells including MEK inhibitor or FGF receptor inhibitor treatment step (first step); observation of brown-black cell population; type: cell-based; details: for concentrations at which emergence of a brown-black cell population could be confirmed over a wide area: first step 6 days, QHJI01 line, day 36 and day 49 of culture; for emergence of RPE cells showing typical characteristics of RPE cell: 38 to 47 days of culture
Text: In one embodiment, to study the effect of the FGF receptor inhibitor in a medium free of a factor for maintaining undifferentiated state (bFGF), STEMSURE™ hPSC Medium Δ (Wako Pure Chemical Industries, Ltd.) (hereinafter STEMSURE™ hPSC Medium Δ w/o bFGF) not added with bFGF was used.
2014 Jan. 8; 4: 3594”. The medium used was STEMFIT™ AK03N medium (Ajinomoto Co., Inc.) (hereinafter AK03N medium).

[2] = tested on: human iPS cells (1231A3 line); assay: Production of RPE cells from iPS cells with a ROCK inhibitor in the second step; visual observation of brown-black cell population; type: cell-based; details: for concentration at which emergence of a brown-black cell population could be visually confirmed: second step
Description: 2014 Jan. 8; 4: 3594”. The medium used was […] A[…] medium (Ajinomoto Co., Inc.) (hereinafter AK03 medium). […] On the next day of seeding, FGF receptor inhibitor PD173074 (SIGMA) (final concentration 100 nM) was added to the A[…] medium (start of the first step), the medium was exchanged with A[…] medium added with an FGF receptor inhibitor every other day, and the cells were exposed to the FGF receptor inhibitor for 6 days in total (completion of the first step). […] On the first day of culture, A[…] (final concentration 10 μM) or A[…] medium without addition of Y-27632 as a comparison target was used. […] 2014 Jan. 8; 4: 3594”. The medium used was […] A[…] medium (Ajinomoto Co., Inc.) (hereinafter A[…] medium). […] On the next day of seeding, FGF receptor inhibitor PD173074 (SIGMA) (final concentration 100 nM) or MEK inhibitor PD0325901 (SIGMA) (final concentration 1 μM) was added to the A[…] medium (start of the first step), the medium was exchanged with A[…] medium added with an FGF receptor inhibitor or MEK inhibitor every other day, and the cells were exposed to FGF receptor inhibitor or MEK inhibitor for 6 days in total (completion of the first step). […] In the case of 1231A3 line, on the first day of culture, A[…] to a final concentration of 1 μM, 3 μM, 10 μM, 30 μM or 100 μM or, as a comparison target, A[…] medium without addition of Y-27632 was used. […] 2014 Jan. 8; 4: 3594”. The medium used was […] A[…] medium (Ajinomoto Co., Inc.) (hereinafter A[…] medium). […] On the next day of seeding, FGF receptor inhibitor PD173074 (SIGMA) (final concentration 100 nM) was added to the A[…] medium (start of the first step), the medium was exchanged every other day using A[…] medium added with FGF receptor inhibitor, and the cells were exposed to FGF receptor inhibitor for 6 days in total (completion of the first step). […] In the case of 1231A3 line, on the first day of culture, A[…] medium added with ROCK inhibitor Fasudil (Wako Pure Chemical Industries, Ltd.) to a final concentration of 10 μM, 30 μM or 100 μM or, as a comparison target, A[…] medium without addition of Fasudil was used.

[3] = tested on: human iPS cells (QHJI01 line); assay: Production of RPE cells from iPS cells with a ROCK inhibitor or caspase inhibitor in the second step; visual observation of brown-black cell population; type: cell-based
RPE65, BEST1, CRALBP = assay: RT-PCR of retinal pigment epithelial cell markers after MEK inhibitor or FGF receptor inhibitor treatment step; type: cell-based, human; details: first step 6 days (1 μM PD0325901 or 100 nM PD173074); 1231A3 line; day 43; bands very thin when untreated
Description: 2014 Jan. 8; 4: 3594”. The medium used was […] A[…] medium (Ajinomoto Co., Inc.) (hereinafter A[…] medium). […] After observation on day 43 of culture, the cells were collected, RNA was extracted and RT-PCR was performed. RNEASYTM Micro Kit (QIAGEN) was used for RNA extraction, Oligo(dT)12-18Primer (Invitrogen) and SUPERSCRIPTTM III Reverse Transcriptase (Invitrogen) were used for reverse transcription reaction, and BLEND TAQTM-Plus-(TOYOBO) was used for PCR. The primer sequences of RPE65, BEST1, CRLBP, GAPDH are as described below. […] NO: 1), […] NO: 2), […] NO: 3), […] NO: 4), CRALBP-[…] NO: 5), CRALBP-[…] NO: 6), […] NO: 7), […] NO: 8). The number of cycles of the PCR reaction was 30 cycles for RPE65, BEST1, GAPDH, and 35 cycles for CRALBP. PCR products were detected as a single band by agarose gel electrophoresis at near 369 bp for RPE65, near 261 bp for BEST1, near 341 bp for CRALBP, and near 452 bp for GAPDH. As a positive control, primary human RPE (hRPE) was used and, as a negative control, iPS cells (undifferentiated iPSC) cultured under conditions for maintaining undifferentiated state were used.

[4] = tested on: human iPS cells (QHJI01 line); assay: Differentiation induction effect of Nodal and/or Wnt signal transduction pathway inhibitor in the second step; type: cell-based; details: for emergence of cells showing typical characteristics of RPE cell: second step days 1-12 with 10 μM Y-27632 plus 5 μM SB-431542 and/or 3 μM CKI-7, first step 1 μM PD0325901, day 43
Description: Production of retinal pigment epithelial (RPE) cells including an MEK inhibitor treatment step was performed as follows. iPS cells under culture for maintaining undifferentiated state were treated with 0.5×TRYPLE™ Select cell dissociation solution (mixture of equal amounts of TRYPLE™ Select cell dissociation solution (Life Technologies) and 0.5 mM EDTA/PBS(−)), dissociated using a cell scraper, dispersed to single cells by pipetting, seeded in a 6-well culture plate coated with IMATRIX™-511 laminin 511 E8 fragment (Nippi) (0.5 μg/cm^2) at 2.0×10^4 cells per 1 well and cultured in a ROCK inhibitor [10 μM Y-27632 (Wako Pure Chemical Industries, Ltd.)]-containing AK03N medium under 37° C., 5% CO2 conditions. On the next day of seeding, PD0325901 (SIGMA) (final concentration 1 μM) as MEK inhibitor was added to the AK03N medium (start of the first step) and the cells were exposed thereto for 6 days (completion of the first step). Thereafter, the cells were treated with 0.5×TRYPLE™ Select cell dissociation solution, dissociated using a cell scraper, dispersed to single cells by pipetting, seeded in a 12-well culture plate coated with IMATRIX™-511 laminin 511 E8 fragment (0.5 μg/cm^2) at 0.8×10^5 cells per 1 well and cultured under 37° C., 5% CO2 conditions (start of the second step). In the second step, the following 3 kinds of media were used. […]

[5] = first step 6 days: 1 μM PD0325901, 1.5, 3, 6 μM PD184352, 5, 10 μM U0126, 0.3 μM TAK-733, 0.3 μM AZD-8330, QHJI01 and 1231A3 lines, day 49 and day 50
[6] = first step 6 days (1 μM PD0325901 or 100 nM PD173074), 201B7 and 1231A3 lines
[7] = first step 6 days (1 μM PD0325901 or 100 nM PD173074), 1231A3 line, day 43 of culture
[8] = first step 6 days (1 μM PD0325901 or 100 nM PD173074), Ff-I01 and QHJI01 lines, day 43 of culture
[9] = first step 6 days: 100 nM PD173074, 5, 10, 20 μM SU5402, QHJI01 and 1231A3 lines, day 49 of culture

Compound: O=C(NOCC1CC1)c1ccc(F)c(F)c1Nc1ccc(I)cc1Cl [PD184352, (2-[(2-Chloro-4-iodophenyl)amino]-N-cyclopropylmethoxy)-3,4-difluorobenzamide]
- emergence of a brown-black cell population [1, 5]: could be confirmed over a wide area

Compound: C[C@@H](N)[C@H]1CC[C@H](C(=O)Nc2ccncc2)CC1 [Y-27632, trans-4-[(1R)-1-aminoethyl]-N-4-pyridinylcyclohexanecarboxamide]
- emergence of a brown-black cell population ([2]; 10 μM in second step (days 1-13) after FGF receptor inhibitor (100 nM PD173074) first step, day 42 of culture): could be visually confirmed
- concentration at which emergence of a brown-black cell population could be visually confirmed ([2]; tested 1-100 μM, first step FGF receptor inhibitor or MEK inhibitor, day 48 of culture): not less than 10 μM
- exposure period at which emergence of a brown-black cell population could be visually confirmed ([3]; 10 μM in second step, tested 3-20 days, first step MEK inhibitor, day 49 of culture): not less than 6 days
- emergence of a brown-black cell population ([3]; 10 μM, 3 days of exposure in second step, first step MEK inhibitor, day 49 of culture): confirmed only slightly
- emergence of a brown-black cell population ([3]; low concentration (1 μM) in second step, 2.0×10^6 cells per well (10 times general number), first step FGF receptor inhibitor or MEK inhibitor, day 50): could be visually confirmed
- concentration at which emergence of a brown-black cell population could be visually confirmed ([3]; second step, tested 1-100 μM, first step FGF receptor inhibitor or MEK inhibitor, day 50 of culture): not less than 3 μM

Compound: O=C(NOC[C@H](O)CO)c1ccc(F)c(F)c1Nc1ccc(I)cc1F [PD0325901, N-[(2R)-2,3-Dihydroxypropoxy]-3,4-difluoro-2-[(2-fluoro-4-iodophenyl)amino]-benzamide]
- emergence of a brown-black cell population ([1]; 1 μM PD0325901, exposure for 3 days and 6 days, 1231A3 line, day 37 of culture): could be confirmed over a wide area
- emergence of colored cell population ([1]; 1 μM PD0325901, exposure for 13 days, 1231A3 line, day 37 of culture): sufficient emergence of colored cell population was also confirmed
- cells showing typical characteristics of RPE cell ([1]; 1 μM PD0325901, exposure for one day, 1231A3 line, day 37 of culture): almost no cell
- emergence of a brown-black cell population ([1]; PD0325901 1 μM (AK03 medium) or 0.03 μM (ESSENTIAL8 medium), 6 days first step, 201B7 and 1231A3 lines, 38 to 42 days of culture): could be confirmed over a wide area
- concentrations at which emergence of a brown-black cell population could be confirmed over a wide area ([1]; PD0325901, all concentrations studied): 0.25 to 4 µM
- emergence of RPE cells showing typical characteristics of RPE cell [1, 6]: could be confirmed
- emergence of a brown-black cell population [1, 7]: could be confirmed over a wide area
- emergence of a brown-black cell population [1, 8]: could be confirmed over a wide area
- emergence of a brown-black cell population [1, 5]: could be confirmed over a wide area
- RT-PCR bands of retinal pigment epithelial cell markers RPE65, BEST1, CRALBP (RPE65, BEST1, CRALBP): clear bands could be confirmed

Compound: N#CC(=C(N)Sc1ccccc1N)C(C#N)=C(N)Sc1ccccc1N [U0126, 1,4-Diamino-2,3-dicyano-1,4-bis[2-aminophenylthio]butadiene]
- emergence of a brown-black cell population [1, 5]: could be confirmed over a wide area

Compound: Cc1cc(C(=O)NOCCO)c(Nc2ccc(I)cc2F)n(C)c1=O [AZD-8330, 2-(2-fluoro-4-iodophenylamino)-N-(2-hydroxyethoxy)-1,5-dimethyl-6-oxo-1,6-dihydropyridine-3-carboxamide]
- emergence of a brown-black cell population [1, 5]: could be confirmed over a wide area

Compound: CCN(CC)CCCCNc1ncc2cc(-c3cc(OC)cc(OC)c3)c(NC(=O)NC(C)(C)C)nc2n1 [PD173074, N-[2-[[4-(Diethylamino)butyl]amino]-6-(3,5-dimethoxyphenyl)pyrido[2,3-d]pyrimidin-7-yl]-N′-(1,1-dimethylethyl)urea]
- emergence of a brown-black cell population ([1]; PD173074 100 nM, 6 days first step, AK03, ESSENTIAL 8 or STEMSURE hPSC Medium Δ w/o bFGF, 201B7 and/or 1231A3 line, 38 to 42 days of culture): could be confirmed over a wide area
- concentrations at which emergence of a brown-black cell population could be confirmed over a wide area ([1]; PD173074, all concentrations studied): 0.025 to 0.4 µM
- emergence of RPE cells showing typical characteristics of RPE cell [1, 6]: could be confirmed
- emergence of a brown-black cell population [1, 7]: could be confirmed over a wide area
- emergence of a brown-black cell population [1, 8]: could be confirmed over a wide area
- emergence of a brown-black cell population [1, 9]: could be confirmed over a wide area
- RT-PCR bands of retinal pigment epithelial cell markers RPE65, BEST1, CRALBP (RPE65, BEST1, CRALBP): clear bands could be confirmed

Compound: NC(=O)c1ccc(-c2nc(-c3ccc4c(c3)OCO4)c(-c3ccccn3)[nH]2)cc1 [NODALi, 4-[4-(1,3-Benzodioxol-5-yl)-5-(pyridin-2-yl)-1H-imidazol-2-yl]benzamide]
- emergence of cells showing typical characteristics of RPE cell [4]: same level

Compound: O=S(=O)(c1cccc2cnccc12)N1CCCNCC1 [Fasudil, 1-(5-oquinolinesulfonyl)homopiperazine]
- concentration at which emergence of a brown-black cell population could be visually confirmed ([2]; tested 10, 30, 100 μM, 2.0×10^6 cells per well, first step FGF receptor inhibitor, day 41 of culture): not less than 10 μM
- emergence of a brown-black cell population ([3]; 10 μM in second step, 1.0×10^6 cells per well, first step FGF receptor inhibitor, day 48 of culture): could be visually confirmed

Compound: NCCNS(=O)(=O)c1ccc(Cl)c2ccncc12 [WNTi, N-(2-Aminoethyl) chloroisoquinoline-8-sulfonamide]
- brown-black area in the whole well ([4]; second step days 1-12, single agent 3 μM CKI-7 with 10 μM Y-27632, day 43): decreased
- emergence of cells showing typical characteristics of RPE cell [4]: sufficient number of cells

Compound: Cc1c[nH]c(C=C2C(=O)Nc3ccccc32)c1CCC(=O)O [SU5402, 2-[(1,2-Dihydro-2-oxo-3H-indol-3-ylidene)methyl]-4-methyl-1H-pyrrole-3-propanoic acid]
- emergence of a brown-black cell population [1, 9]: could be confirmed over a wide area

Compound: COC(=O)C[C@H](NC(=O)[C@H](C)NC(=O)[C@@H](NC(=O)OCc1ccccc1)C(C)C)C(=O)CF (racemic) [Z-VAD-FMK, benzyloxycarbonyl-Val-Ala-DL-Asp(OMe)-fluoromethylketone]
- emergence of a brown-black cell population ([3]; 20 μM in second step, 2.0×10^6 cells per well, first step MEK inhibitor, day 65 or 67 of culture): could be visually confirmed
